From PubChem BioAssay (NCI)
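Cells were grown in 96-well plates and exposed to each compound for 48 hours at five concentrations; endpoints were interpolated linearly between bracketing concentrations, or set to the highest concentration if not reached. TGI: concentration producing complete growth inhibition.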

Key:
Test in all cases: inhibition of tumour cell growth, NCI panel, 48 h
DU-145 prostate = tested on: DU-145 prostate
MALME-3M melanoma = tested on: MALME-3M melanoma
KM20L2 colon = tested on: KM20L2 colon
NCI-H460 lung = tested on: NCI-H460 lung
MDA-MB-435 = tested on: MDA-MB-435
ACHN renal = tested on: ACHN renal
SN12C renal = tested on: SN12C renal
A549 NSCLC = tested on: A549 NSCLC
K-562 leukemia = tested on: K-562 leukemia
HCT-15 colon = tested on: HCT-15 colon
MDA-MB-231 breast = tested on: MDA-MB-231 breast
A498 renal = tested on: A498 renal
RPMI-8226 leukemia = tested on: RPMI-8226 leukemia
TK-10 renal = tested on: TK-10 renal
SK-OV-3 ovarian = tested on: SK-OV-3 ovarian
OVCAR-3 ovarian = tested on: OVCAR-3 ovarian
SW-620 colon = tested on: SW-620 colon
COLO 205 colon = tested on: COLO 205 colon
OVCAR-8 ovarian = tested on: OVCAR-8 ovarian
SF-539 CNS = tested on: SF-539 CNS
T-47D breast = tested on: T-47D breast
SR leukemia = tested on: SR leukemia
PC-3 prostate = tested on: PC-3 prostate
OVCAR-5 ovarian = tested on: OVCAR-5 ovarian
UO-31 renal = tested on: UO-31 renal
HOP-92 NSCLC = tested on: HOP-92 NSCLC
SF-295 CNS = tested on: SF-295 CNS
SK-MEL-2 melanoma = tested on: SK-MEL-2 melanoma
LOX IMVI melanoma = tested on: LOX IMVI melanoma
IGROV1 ovarian = tested on: IGROV1 ovarian
CCRF-CEM leukemia = tested on: CCRF-CEM leukemia
CAKI-1 renal = tested on: CAKI-1 renal
HL-60(TB) leukemia = tested on: HL-60(TB) leukemia
HCC-2998 colon = tested on: HCC-2998 colon
MCF7 breast = tested on: MCF7 breast
MDA-N = tested on: MDA-N
HCT-116 colon = tested on: HCT-116 colon
LXFL 529 NSCLC = tested on: LXFL 529 NSCLC
NCI-H522 lung = tested on: NCI-H522 lung
786-0 renal = tested on: 786-0 renal
DLD-1 colon = tested on: DLD-1 colon
NCI-H23 lung = tested on: NCI-H23 lung
UACC-257 melanoma = tested on: UACC-257 melanoma
SNB-78 CNS = tested on: SNB-78 CNS
UACC-62 melanoma = tested on: UACC-62 melanoma
SK-MEL-5 melanoma = tested on: SK-MEL-5 melanoma
SNB-19 CNS = tested on: SNB-19 CNS
SK-MEL-28 melanoma = tested on: SK-MEL-28 melanoma
SNB-75 CNS = tested on: SNB-75 CNS
HT29 colon = tested on: HT29 colon
KM12 colon = tested on: KM12 colon
SF-268 CNS = tested on: SF-268 CNS
NCI-H226 lung = tested on: NCI-H226 lung
U251 CNS = tested on: U251 CNS
EKVX NSCLC = tested on: EKVX NSCLC
MOLT-4 leukemia = tested on: MOLT-4 leukemia
OVCAR-4 ovarian = tested on: OVCAR-4 ovarian

CCCCCCC(=O)OC[n+]1ccc2c(C)c3[nH]c4ccc(OC)cc4c3c(C)c2c1
TGI (DU-145 prostate): 3.59 µM
TGI (MALME-3M melanoma): 14.2 µM
TGI (KM20L2 colon): 5.32 µM
TGI (NCI-H460 lung): 1.02 µM
TGI (MDA-MB-435): 1.79 µM
TGI (ACHN renal): 4.88 µM
TGI (SN12C renal): 1.91 µM
TGI (A549 NSCLC): 1.88 µM
TGI (K-562 leukemia): 1.31 µM
TGI (HCT-15 colon): 1.24 µM
TGI (MDA-MB-231 breast): 2.36 µM
TGI (A498 renal): 2.02 µM
TGI (RPMI-8226 leukemia): 2.1 µM
TGI (TK-10 renal): 10.4 µM
TGI (SK-OV-3 ovarian): 3.83 µM
TGI (OVCAR-3 ovarian): 4.84 µM
TGI (SW-620 colon): 1.78 µM
TGI (COLO 205 colon): 1.34 µM
TGI (OVCAR-8 ovarian): 2.12 µM
TGI (SF-539 CNS): 1.67 µM
TGI (T-47D breast): 11.5 µM
TGI (SR leukemia): 3.46 µM
TGI (PC-3 prostate): 1.51 µM
TGI (OVCAR-5 ovarian): 2.75 µM
TGI (UO-31 renal): 5.48 µM
TGI (HOP-92 NSCLC): 3.49 µM
TGI (SF-295 CNS): 1.59 µM
TGI (SK-MEL-2 melanoma): 9.35 µM
TGI (LOX IMVI melanoma): 1.5 µM
TGI (IGROV1 ovarian): 3.83 µM
TGI (CCRF-CEM leukemia): 1.63 µM
TGI (CAKI-1 renal): 6.69 µM
TGI (HL-60(TB) leukemia): 1.7 µM
TGI (HCC-2998 colon): 2.68 µM
TGI (MCF7 breast): 1.75 µM
TGI (MDA-N): 1.59 µM

C#Cc1cccc(NC(=O)/C=C\C(=O)O)c1
TGI (HCT-116 colon): > 100 µM
TGI (LXFL 529 NSCLC): > 100 µM
TGI (MALME-3M melanoma): > 100 µM
TGI (KM20L2 colon): > 100 µM
TGI (NCI-H522 lung): > 100 µM
TGI (NCI-H460 lung): > 100 µM
TGI (786-0 renal): > 100 µM
TGI (ACHN renal): > 100 µM
TGI (SN12C renal): > 100 µM
TGI (A549 NSCLC): > 100 µM
TGI (K-562 leukemia): > 100 µM
TGI (A498 renal): > 100 µM
TGI (RPMI-8226 leukemia): > 100 µM
TGI (TK-10 renal): > 100 µM
TGI (DLD-1 colon): > 100 µM
TGI (SK-OV-3 ovarian): > 100 µM
TGI (NCI-H23 lung): > 100 µM
TGI (UACC-257 melanoma): > 100 µM
TGI (SW-620 colon): > 100 µM
TGI (COLO 205 colon): > 100 µM
TGI (OVCAR-8 ovarian): > 100 µM
TGI (SNB-78 CNS): > 100 µM
TGI (UACC-62 melanoma): > 100 µM
TGI (SK-MEL-5 melanoma): > 100 µM
TGI (OVCAR-5 ovarian): > 100 µM
TGI (SNB-19 CNS): > 100 µM
TGI (SK-MEL-28 melanoma): > 100 µM
TGI (SNB-75 CNS): > 100 µM
TGI (HT29 colon): > 100 µM
TGI (UO-31 renal): > 100 µM
TGI (KM12 colon): > 100 µM
TGI (SF-268 CNS): > 100 µM
TGI (HOP-92 NSCLC): > 100 µM
TGI (SF-295 CNS): > 100 µM
TGI (NCI-H226 lung): > 100 µM
TGI (SK-MEL-2 melanoma): > 100 µM
TGI (U251 CNS): > 100 µM
TGI (EKVX NSCLC): > 100 µM
TGI (CCRF-CEM leukemia): > 100 µM
TGI (CAKI-1 renal): > 100 µM
TGI (HL-60(TB) leukemia): > 100 µM
TGI (MOLT-4 leukemia): > 100 µM
TGI (OVCAR-4 ovarian): > 100 µM
